Data from US20200113181A1, “HERBICIDAL COMPOUNDS” (SYNGENTA PARTICIPATIONS AG, priority 2016, published 2020).

Tests used:
Type in all cases: in vivo
[1] = system: soybean plants (Glycine max (GLYMX)); experiment: Crop phytotoxicity, soybean plants treated post-emergence
Protocol: [The procedure below names another organism; the source says it served here with some conditions changed.] (§1) Seeds of a variety of test species are sown in standard soil in pots (Lolium perenne (LOLPE), Setaria faberi (SETFA), Alopecurus myosuroides (ALOMY), Echinochloa crus-galli (ECHCG), Avena fatua (AVEFA)). After cultivation for one day (pre-emergence) or after 8 days cultivation (post-emergence) under controlled conditions in a glasshouse (at 24/16° C., day/night; 14 hours light; 65% humidity), the plants are sprayed with an aqueous spray solution derived from the formulation of the technical active ingredient in acetone/water (50:50) solution containing 0.5% Tween 20 (polyoxyethelyene sorbitan monolaurate, CAS RN 9005-64-5). Compounds are applied at […]. The test plants are then grown in a glasshouse under controlled conditions in a glasshouse (at 24/16° C., day/night; 14 hours light; 65% humidity) and watered twice daily. After 13 days for pre and post-emergence, the test is evaluated for the percentage damage caused to the plant. The biological activities are shown in the following table on a five point scale (5=80-100%; 4=60-79%; 3=40-59%; 2=20-39%; 1=0-19%).

[2] = system: wheat plants (Triticum aestivum (TRZAW)); experiment: Crop phytotoxicity, wheat plants treated post-emergence
Protocol: as §1
Using procedures outlines above, wheat plants (Triticum aestivum (TRZAW) are treated post-emergence with compound 1.2 of the present invention or compound A-18 from WO 2013/079708. The results outlined in Table B2 below show % phytotoxicity observed and that compound 1.2 of the present invention is less damaging to wheat compared to compound A-18 disclosed in WO2013/079708.

[3] = system: Echinochloa crus-galli (ECHCG); experiment: Glasshouse herbicide test, pre- and post-emergence, Echinochloa crus-galli; conditions: 250 g/h, evaluated after 13 days; for ECHCG POST, percentage damage caused to the plant (five point scale): post-emergence; for ECHCG PRE, percentage damage caused to the plant (five point scale): pre-emergence
Protocol: as §1

[4] = system: Lolium perenne (LOLPE); experiment: Glasshouse herbicide test, pre- and post-emergence, Lolium perenne; conditions: 250 g/h, evaluated after 13 days; for LOLPE POST, percentage damage caused to the plant (five point scale): post-emergence; for LOLPE PRE, percentage damage caused to the plant (five point scale): pre-emergence
Protocol: as §1

[5] = system: Avena fatua (AVEFA); experiment: Glasshouse herbicide test, pre- and post-emergence, Avena fatua; conditions: 250 g/h, evaluated after 13 days; for AVEFA POST, percentage damage caused to the plant (five point scale): post-emergence; for AVEFA PRE, percentage damage caused to the plant (five point scale): pre-emergence
Protocol: as §1

[6] = system: Setaria faberi (SETFA); experiment: Glasshouse herbicide test, pre- and post-emergence, Setaria faberi; conditions: 250 g/h, evaluated after 13 days; for SETFA POST, percentage damage caused to the plant (five point scale): post-emergence; for SETFA PRE, percentage damage caused to the plant (five point scale): pre-emergence
Protocol: as §1

[7] = system: Alopecurus myosuroides (ALOMY); experiment: Glasshouse herbicide test, pre- and post-emergence, Alopecurus myosuroides; conditions: 250 g/h, evaluated after 13 days; for ALOMY POST, percentage damage caused to the plant (five point scale): post-emergence; for ALOMY PRE, percentage damage caused to the plant (five point scale): pre-emergence
Protocol: as §1

Row | SMILES | GLYMX % Phyto ([1]; rate 15 g/ha) | GLYMX % Phyto ([1]; rate 30 g/ha) | GLYMX % Phyto ([1]; rate 60 g/ha) | TRZAW % Phyto ([2]; rate 4 g/ha) | TRZAW % Phyto ([2]; rate 16 g/ha) | TRZAW % Phyto ([2]; rate 63 g/ha) | ECHCG POST, percentage damage caused to the plant (five point scale) [3] | ECHCG PRE, percentage damage caused to the plant (five point scale) [3] | LOLPE POST, percentage damage caused to the plant (five point scale) [4] | LOLPE PRE, percentage damage caused to the plant (five point scale) [4] | AVEFA POST, percentage damage caused to the plant (five point scale) [5] | AVEFA PRE, percentage damage caused to the plant (five point scale) [5] | SETFA POST, percentage damage caused to the plant (five point scale) [6] | SETFA PRE, percentage damage caused to the plant (five point scale) [6] | ALOMY POST, percentage damage caused to the plant (five point scale) [7] | ALOMY PRE, percentage damage caused to the plant (five point scale) [7]
1 | CC#Cc1cc(C)c(C2C(=O)[C@@H]3[C@H](C2=O)[C@H]2CC[C@@H]3O2)c(C)c1 (stereo partly shown) [Compound A-18, reference compound] | 40% | 60% | 80% | 60% | 100% | 100% |  |  |  |  |  |  |  |  |  | 
2 | CC#Cc1ccc(C2C(=O)[C@@H]3[C@@H]4O[C@@H](C[C@H]4COC)[C@@H]3C2=O)c(OC)c1 (mixture of isomers) [Compound 1.15] |  |  |  |  |  |  | 5 (5=80-100%) | 5 (5=80-100%) | 5 (5=80-100%) | 5 (5=80-100%) | 5 (5=80-100%) | 5 (5=80-100%) | 5 (5=80-100%) | 5 (5=80-100%) | 5 (5=80-100%) | 5 (5=80-100%)
3 | CC#Cc1ccc(C2C(=O)[C@@H]3[C@H](C2=O)[C@H]2CC[C@@H]3O2)c(OC)c1 (stereo partly shown) [Compound 1.2, 4-[2-methoxy-4-(prop-1-yn-1-yl)phenyl]-10-oxatricyclo[5.2.1.0^2,6]decane-3,5-dione] |  |  |  | 20% | 70% | 60% | 5 (5=80-100%) | 5 (5=80-100%) | 5 (5=80-100%) | 5 (5=80-100%) | 5 (5=80-100%) | 5 (5=80-100%) | 5 (5=80-100%) | 5 (5=80-100%) |  | 
4 | CC#Cc1ccc(C2C(=O)[C@@H]3[C@H](C2=O)[C@H]2CC[C@@H]3O2)c(OCCOC)c1 (mixture of isomers) [Compound 1.32] |  |  |  |  |  |  | 5 (5=80-100%) | 3 (3=40-59%) | 5 (5=80-100%) | 4 (4=60-79%) | 5 (5=80-100%) | 4 (4=60-79%) | 5 (5=80-100%) | 3 (3=40-59%) | 4 (4=60-79%) | 1 (1=0-19%)
5 | CC#Cc1ccc(C2C(=O)[C@@H]3[C@@H]4O[C@@H](C[C@@H]4COC)[C@@H]3C2=O)c(OC)c1 (mixture of isomers) [Compound 1.9, 8-methoxymethyl-4-[2-methoxy-4-(prop-1-yn-1-yl)phenyl]-10-oxatricyclo[5.2.1.0^2,6]decane-3,5-dione] |  |  |  |  |  |  | 5 (5=80-100%) | 5 (5=80-100%) | 5 (5=80-100%) | 5 (5=80-100%) | 5 (5=80-100%) | 5 (5=80-100%) | 5 (5=80-100%) | 5 (5=80-100%) | 5 (5=80-100%) | 5 (5=80-100%)
6 | CC#Cc1ccc(C2=C(OC(=O)C(C)C)[C@@H]3[C@H](C2=O)[C@@H]2O[C@H]3C[C@@H]2COC)c(OC)c1 (racemic) [Compound 1.27] |  |  |  |  |  |  | 5 (5=80-100%) | 5 (5=80-100%) | 5 (5=80-100%) | 5 (5=80-100%) | 5 (5=80-100%) | 5 (5=80-100%) | 5 (5=80-100%) | 5 (5=80-100%) | 5 (5=80-100%) | 5 (5=80-100%)
7 | CC#Cc1ccc(C2C(=O)[C@@H]3[C@@H]4O[C@@H](C[C@@H]4C4OCCO4)[C@@H]3C2=O)c(OC)c1 (mixture of isomers) [Compound 1.18] |  |  |  |  |  |  | 5 (5=80-100%) | 5 (5=80-100%) | 5 (5=80-100%) | 5 (5=80-100%) | 5 (5=80-100%) | 4 (4=60-79%) | 5 (5=80-100%) | 5 (5=80-100%) | 5 (5=80-100%) | 4 (4=60-79%)
8 | CC#Cc1ccc(C2C(=O)[C@H]3[C@@H]4CC[C@@](C)(O4)[C@H]3C2=O)c(OC)c1 (stereo partly shown) [Compound 1.22] |  |  |  |  |  |  | 5 (5=80-100%) | 5 (5=80-100%) | 5 (5=80-100%) | 5 (5=80-100%) | 5 (5=80-100%) | 5 (5=80-100%) | 5 (5=80-100%) | 5 (5=80-100%) | 5 (5=80-100%) | 5 (5=80-100%)
9 | CC#Cc1ccc(C2C(=O)[C@@H]3[C@@H]4O[C@@H](C[C@@H]4OC)[C@@H]3C2=O)c(OC)c1 (mixture of isomers) [Compound 1.25] |  |  |  |  |  |  | 5 (5=80-100%) | 5 (5=80-100%) | 5 (5=80-100%) | 5 (5=80-100%) | 5 (5=80-100%) | 5 (5=80-100%) | 5 (5=80-100%) | 5 (5=80-100%) | 5 (5=80-100%) | 5 (5=80-100%)
10 | CC#Cc1ccc(C2C(=O)[C@H]3[C@@H]4C=C[C@@](C)(O4)[C@H]3C2=O)c(OC)c1 (mixture of isomers) [Compound 1.6] |  |  |  |  |  |  | 5 (5=80-100%) | 5 (5=80-100%) | 5 (5=80-100%) | 5 (5=80-100%) | 5 (5=80-100%) | 3 (3=40-59%) | 5 (5=80-100%) | 5 (5=80-100%) | 2 (2=20-39%) | 5 (5=80-100%)
